Test results: paper PMC9607164, “Rational Design, Synthesis and Biological Evaluation of Novel Pyrazoline-Based Antiproliferative Agents in MCF-7 Cancer Cells” (Pharmaceuticals, 2022)
Like-named read-outs stand apart in the source and are kept apart here.

How the values were obtained:
[1] = test system: MCF-10A normal breast cells; test: MTT cytotoxicity assay on MCF-10A; type: cell-based; details: Homo sapiens, 48 h, n = 3, read-out: IC50 ± SD, MCF-10A
Procedure: (§1) Both breast cancer (MCF-7) and normal breast (MCF-10A) cells were purchased from National Research Institute, Egypt, and maintained in complete media of RPMI-1640 medium L-Glutamine (Lonza Verviers SPRL, Belgium, cat#12-604F). Cells were incubated following standard tissue culture work. Cell viability was measured 48 h later, utilizing MTT colorimetric assay (Promega, Madison, WI, USA). Absorbance was consequently assessed (at 570 nm) using an ELISA microplate reader (BIO-RAD, model iMark, Tokyo, Japan). Using GraphPad Prism 7, the IC50 values were determined, and the viability at each concentration was determined in comparison to the control.

MCF-7 cancer cells = test: MTT cytotoxicity assay on MCF-7; type: cell-based; details: MTT assay, 48 h, n = 3, NA: Non-Active, read-out: IC50 ± SD, MCF-7
Procedure: as §1

HER2 Kinase = biological target: T1, HER2 Kinase (Homo sapiens, UniProt P04626); test: HER2 Kinase Assay Kit (BPS Bioscience); type: biochemical; details: mean ± SD of three replicates, five concentrations
T1 construct: purchased BPS Bioscience 40721
T1 sequence (P04626 23-1255): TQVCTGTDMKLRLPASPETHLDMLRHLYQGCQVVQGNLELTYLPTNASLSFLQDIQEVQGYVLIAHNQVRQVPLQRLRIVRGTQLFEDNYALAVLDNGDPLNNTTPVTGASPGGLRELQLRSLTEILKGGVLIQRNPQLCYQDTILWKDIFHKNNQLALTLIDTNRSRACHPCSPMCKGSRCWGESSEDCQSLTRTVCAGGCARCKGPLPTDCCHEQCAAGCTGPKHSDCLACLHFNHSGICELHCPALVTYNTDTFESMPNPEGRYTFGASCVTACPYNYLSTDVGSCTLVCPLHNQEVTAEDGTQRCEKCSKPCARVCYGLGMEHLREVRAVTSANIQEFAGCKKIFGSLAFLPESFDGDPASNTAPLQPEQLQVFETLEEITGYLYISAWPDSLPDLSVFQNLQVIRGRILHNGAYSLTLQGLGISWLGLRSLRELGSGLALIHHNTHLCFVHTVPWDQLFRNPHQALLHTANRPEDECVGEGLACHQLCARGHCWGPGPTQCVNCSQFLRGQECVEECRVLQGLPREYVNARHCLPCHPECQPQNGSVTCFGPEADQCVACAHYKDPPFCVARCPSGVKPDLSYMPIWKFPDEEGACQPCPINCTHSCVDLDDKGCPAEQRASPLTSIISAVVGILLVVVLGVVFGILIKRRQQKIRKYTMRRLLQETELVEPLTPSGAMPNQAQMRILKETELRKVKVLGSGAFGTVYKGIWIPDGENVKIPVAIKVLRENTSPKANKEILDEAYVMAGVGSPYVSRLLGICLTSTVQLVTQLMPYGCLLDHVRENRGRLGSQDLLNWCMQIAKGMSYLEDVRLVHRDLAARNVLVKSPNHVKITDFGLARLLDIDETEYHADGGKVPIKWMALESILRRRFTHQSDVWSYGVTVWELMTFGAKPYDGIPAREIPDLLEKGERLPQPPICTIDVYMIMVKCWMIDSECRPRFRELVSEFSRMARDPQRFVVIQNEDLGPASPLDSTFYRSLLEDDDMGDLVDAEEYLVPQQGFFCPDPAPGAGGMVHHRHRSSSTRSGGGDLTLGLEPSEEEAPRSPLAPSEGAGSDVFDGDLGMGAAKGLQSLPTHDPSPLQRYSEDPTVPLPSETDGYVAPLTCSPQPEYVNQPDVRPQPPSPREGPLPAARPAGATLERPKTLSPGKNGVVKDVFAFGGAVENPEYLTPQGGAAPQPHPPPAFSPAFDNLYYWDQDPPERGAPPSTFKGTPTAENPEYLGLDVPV
Procedure: (§2) Compounds’ autophosphorylation percentage inhibition was computed according to the following equation: […] , then IC50 values were calculated using GraphPad prism software.

EGFR Kinase = biological target: T2, EGFR Kinase (Homo sapiens, UniProt P00533); test: EGFR Kinase Assay Kit (BPS Bioscience); type: biochemical; details: mean ± SD of three replicates, five concentrations
T2 construct: purchased BPS Bioscience 40321
T2 sequence (P00533 25-1210): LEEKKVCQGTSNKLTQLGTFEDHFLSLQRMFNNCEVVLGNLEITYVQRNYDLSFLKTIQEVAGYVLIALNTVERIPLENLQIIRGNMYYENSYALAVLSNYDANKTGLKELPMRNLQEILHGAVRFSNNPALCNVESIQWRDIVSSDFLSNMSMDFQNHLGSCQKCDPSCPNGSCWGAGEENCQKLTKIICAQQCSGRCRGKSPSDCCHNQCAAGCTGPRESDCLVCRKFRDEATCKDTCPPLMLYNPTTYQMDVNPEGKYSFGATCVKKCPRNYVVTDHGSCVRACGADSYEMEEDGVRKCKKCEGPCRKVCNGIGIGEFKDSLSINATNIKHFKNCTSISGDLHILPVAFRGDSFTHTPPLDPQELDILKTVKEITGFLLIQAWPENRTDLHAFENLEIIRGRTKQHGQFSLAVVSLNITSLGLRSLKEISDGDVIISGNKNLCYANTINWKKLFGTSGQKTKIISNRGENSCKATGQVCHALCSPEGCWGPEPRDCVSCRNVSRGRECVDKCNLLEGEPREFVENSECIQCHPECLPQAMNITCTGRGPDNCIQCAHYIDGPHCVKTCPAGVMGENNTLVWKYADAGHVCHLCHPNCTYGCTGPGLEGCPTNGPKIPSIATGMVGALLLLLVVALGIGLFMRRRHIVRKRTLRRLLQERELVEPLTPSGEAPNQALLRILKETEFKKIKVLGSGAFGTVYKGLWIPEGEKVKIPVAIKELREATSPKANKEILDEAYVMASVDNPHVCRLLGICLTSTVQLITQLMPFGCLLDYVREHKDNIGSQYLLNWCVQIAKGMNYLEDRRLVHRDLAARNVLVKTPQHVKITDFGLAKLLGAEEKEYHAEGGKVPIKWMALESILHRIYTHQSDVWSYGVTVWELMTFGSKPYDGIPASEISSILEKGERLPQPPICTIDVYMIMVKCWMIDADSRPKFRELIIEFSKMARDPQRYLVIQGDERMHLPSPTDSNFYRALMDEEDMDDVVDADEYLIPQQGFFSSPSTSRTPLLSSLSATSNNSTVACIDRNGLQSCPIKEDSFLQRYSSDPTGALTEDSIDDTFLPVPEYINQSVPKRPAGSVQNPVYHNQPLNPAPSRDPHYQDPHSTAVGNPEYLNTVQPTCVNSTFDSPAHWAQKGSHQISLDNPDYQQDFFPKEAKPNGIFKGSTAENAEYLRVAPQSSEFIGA
Procedure: as §2

[2] = test system: breast cancer cells MCF-7; details: cited from earlier work
[3] = type: in vivo; details: 10 mg/kg BW, IP; MCF-7 control 32.28 g, normal 24.5 g
Description: In vivo experiments for lethal dose (LD50), experimental design, tumor mass, blood parameters, histopathological examinations were accomplished as previously described. After inoculating the tumor cells, masses of the solid tumor started to appear ten days later. […]. Animals from each group were sacrificed, and their blood was drawn to measure hemoglobin (Hb), red blood cell (RBC), white blood cell (WBC), and liver enzymes (ALT, AST, albumin, and total protein) levels.

[4] = reported pyrazoline-based agents

Row | Compound | IC50 [1] [µM] | melting point [°C] | IC50 (MCF-7 cancer cells; Homo sapiens, MCF7, 48 h) [µM] | other results
1 | COc1ccc(C2=NN(C(N)=S)C(c3ccccc3)C2)cc1OC (stereo not drawn) [Compound 3a, 3-(3,4-Dimethoxyphenyl)-5-phenyl-4,5-dihydro-1H-pyrazole-1-carbothioamide] | 36.5 ± 1.15 | 188 to 190 | – | –
2 | COc1ccc(C2CC(c3ccc(OC)c(OC)c3)=NN2C(N)=S)cc1 (stereo not drawn) [Compound 3b, 3-(3,4-Dimethoxyphenyl)-5-(4-methoxyphenyl)-4,5-dihydro-1H-pyrazole-1-carbothioamide] | 34.8 ± 1.35 | 221 to 223 | 23.6 ± 0.72 | –
3 | COc1ccc(C2=NN(C(N)=S)C(c3ccc(Cl)cc3)C2)cc1OC (stereo not drawn) [Compound 3c, 5-(4-Chlorophenyl)-3-(3,4-dimethoxyphenyl)-4,5-dihydro-1H-pyrazole-1-carbothioamide] | ≥ 50 | 230 to 232 | 11.1 | IC50 (MCF-7 cancer cells): 11.2 ± 0.54 µM; IC50 (HER2 Kinase): 70 ± 18 nM; IC50 (EGFR Kinase): 67 ± 9 nM
4 | COc1ccc(C2=NN(c3nc(-c4ccccc4)cs3)C(c3ccccc3)C2)cc1OC (stereo not drawn) [Compound 6a, 2-(3-(3,4-Dimethoxyphenyl)-5-phenyl-4,5-dihydro-1H-pyrazol-1-yl)-4-phenylthiazole] | ≥ 50 | 202 to 205 | – | –
5 | COc1ccc(C2=NN(c3nc(-c4ccc(C)cc4)cs3)C(c3ccccc3)C2)cc1OC (stereo not drawn) [Compound 6b, 2-(3-(3,4-Dimethoxyphenyl)-5-phenyl-4,5-dihydro-1H-pyrazol-1-yl)-4-(p-tolyl)thiazole] | ≥ 50 | 210 to 215 | 13.4 ± 0.98 | –
6 | COc1ccc(C2=NN(c3nc(-c4ccc(F)cc4)cs3)C(c3ccccc3)C2)cc1OC (stereo not drawn) [Compound 6c, 2-(3-(3,4-Dimethoxyphenyl)-5-phenyl-4,5-dihydro-1H-pyrazol-1-yl)-4-(4-fluorophenyl)thiazole] | ≥ 50 | 135 to 140 | 18.7 ± 0.84 | –
7 | COc1ccc(C2=NN(c3nc(-c4ccc(Cl)cc4)cs3)C(c3ccccc3)C2)cc1OC (stereo not drawn) [Compound 6d, 4-(4-Chlorophenyl)-2-(3-(3,4-dimethoxyphenyl)-5-phenyl-4,5-dihydro-1H-pyrazol-1-yl)thiazole] | 45.2 ± 1.24 | 195 to 198 | – | –
8 | COc1ccc(C2CC(c3ccc(OC)c(OC)c3)=NN2c2nc(-c3ccc(C)cc3)cs2)cc1 (stereo not drawn) [Compound 6f, 2-(3-(3,4-Dimethoxyphenyl)-5-(4-methoxyphenyl)-4,5-dihydro-1H-pyrazol-1-yl)-4-(p-tolyl)thiazole] | 35.4 ± 1.84 | 150 to 152 | 11.1 ± 0.85 | IC50 (HER2 Kinase): 120 ± 25 nM; IC50 (EGFR Kinase): 230 ± 24 nM
9 | COc1ccc(C2CC(c3ccc(OC)c(OC)c3)=NN2c2nc(-c3ccc(F)cc3)cs2)cc1 (stereo not drawn) [Compound 6g, 2-(3-(3,4-Dimethoxyphenyl)-5-(4-methoxyphenyl)-4,5-dihydro-1H-pyrazol-1-yl)-4-(4-fluorophenyl)thiazole] | 24.5 ± 1.01 | 140 to 143 | 15.4 ± 0.79 | –
10 | COc1ccc(C2CC(c3ccc(OC)c(OC)c3)=NN2c2nc(-c3ccc(Cl)cc3)cs2)cc1 (stereo not drawn) [Compound 6h, 4-(4-Chlorophenyl)-2-(3-(3,4-dimethoxyphenyl)-5-(4-methoxyphenyl)-4,5-dihydro-1H-pyrazol-1-yl)thiazole] | 26.5 ± 1.59 | 149 to 151 | 35.2 ± 1.27 | –
11 | COc1ccc(C2=NN(c3nc(-c4ccccc4)cs3)C(c3ccc(Cl)cc3)C2)cc1OC (stereo not drawn) [Compound 6i, 2-(5-(4-Chlorophenyl)-3-(3,4-dimethoxyphenyl)-4,5-dihydro-1H-pyrazol-1-yl)-4-phenylthiazole] | 15.8 ± 1.08 | 208 to 210 | 45.4 ± 1.87 | –
12 | COc1ccc(C2=NN(c3nc(-c4ccc(C)cc4)cs3)C(c3ccc(Cl)cc3)C2)cc1OC (stereo not drawn) [Compound 6j, 2-(5-(4-Chlorophenyl)-3-(3,4-dimethoxyphenyl)-4,5-dihydro-1H-pyrazol-1-yl)-4-(p-tolyl)thiazole] | ≥ 50 | 189 to 191 | – | –
13 | COc1ccc(C2=NN(c3nc(-c4ccc(Cl)cc4)cs3)C(c3ccc(Cl)cc3)C2)cc1OC (stereo not drawn) [Compound 6l, 4-(4-Chlorophenyl)-2-(5-(4-chlorophenyl)-3-(3,4-dimethoxyphenyl)-4,5-dihydro-1H-pyrazol-1-yl)thiazole] | 35.7 ± 1.85 | 195 to 197 | 17.6 ± 0.97 | –
14 | COc1ccc(C2=NN(c3nc(C)c(C(C)=O)s3)C(c3ccccc3)C2)cc1OC (stereo not drawn) [Compound 9a, 1-(2-(3-(3,4-Dimethoxyphenyl)-5-phenyl-4,5-dihydro-1H-pyrazol-1-yl)-4-methylthiazol-5-yl)ethan-1-one] | 18.9 ± 1.09 | 235 to 238 | 34.2 ± 1.68 | –
15 | COc1ccc(C2CC(c3ccc(OC)c(OC)c3)=NN2c2nc(C)c(C(C)=O)s2)cc1 (stereo not drawn) [Compound 9b, 1-(2-(3-(3,4-Dimethoxyphenyl)-5-(4-methoxyphenyl)-4,5-dihydro-1H-pyrazol-1-yl)-4-methylthiazol-5-yl)ethan-1-one] | 26.3 ± 1.07 | 213 to 215 | 31.7 ± 1.96 | –
16 | COc1ccc(C2=NN(c3nc(C)c(C(C)=O)s3)C(c3ccc(Cl)cc3)C2)cc1OC (stereo not drawn) [Compound 9c, 1-(2-(5-(4-Chlorophenyl)-3-(3,4-dimethoxyphenyl)-4,5-dihydro-1H-pyrazol-1-yl)-4-methylthiazol-5-yl)ethan-1-one] | ≥ 50 | 215 to 218 | – | –
17 | CCOC(=O)c1sc(N2N=C(c3ccc(OC)c(OC)c3)CC2c2ccccc2)nc1C (stereo not drawn) [Compound 9d, Ethyl 2-(3-(3,4-Dimethoxyphenyl)-5-phenyl-4,5-dihydro-1H-pyrazol-1-yl)-4-methylthiazole-5-carboxylate] | 24.3 ± 1.39 | 215 to 218 | – | –
18 | CCOC(=O)c1sc(N2N=C(c3ccc(OC)c(OC)c3)CC2c2ccc(OC)cc2)nc1C (stereo not drawn) [Compound 9e, Ethyl 2-(3-(3,4-Dimethoxyphenyl)-5-(4-methoxyphenyl)-4,5-dihydro-1H-pyrazol-1-yl)-4-methylthiazole-5-carboxylate] | 43.6 ± 1.85 | 169 to 171 | 18.9 ± 1.03 | –
19 | CCOC(=O)c1sc(N2N=C(c3ccc(OC)c(OC)c3)CC2c2ccc(Cl)cc2)nc1C (stereo not drawn) [Compound 9f, Ethyl 2-(5-(4-Chlorophenyl)-3-(3,4-dimethoxyphenyl)-4,5-dihydro-1H-pyrazol-1-yl)-4-methylthiazole-5-carboxylate] | ≥ 50 | 197 to 200 | 8.35 ± 0.29 | IC50 (HER2 Kinase): 140 ± 6 nM; IC50 (EGFR Kinase): 51 ± 3 nM
20 | Cc1nc(Nc2ncc(C(=O)Nc3c(C)cccc3Cl)s2)cc(N2CCN(CCO)CC2)n1 [Dasatinib] | – | – | – | MCF-7 (measure not named) ([2]; Figure 2, reported agent): 17.03 µM
21 | COc1ccc2ccc(=O)oc2c1C1=NN(S(=O)(=O)c2ccc(C)cc2)C(c2ccccc2)C1 (stereo not drawn) [III] | – | – | – | IC50 [2, 4]: 34.1 µM
22 | O=C1CCC(=O)N1CC(=O)N1N=C(c2ccccc2)CC1c1ccccc1 (stereo not drawn) [II] | – | – | – | IC50 [2, 4]: 0.42 µM
23 | CC(=O)N1N=C(c2ccc(OC3OC4OC5(C)CCC6C(C)CCC(C3C)C46OO5)cc2)CC1c1ccccc1 (stereo not drawn) [I] | – | – | – | GI50 ([2]; reported pyrazoline-based agent): 130 nM
24 | CS(=O)(=O)CCNCc1ccc(-c2ccc3ncnc(Nc4ccc(OCc5cccc(F)c5)c(Cl)c4)c3c2)o1 [Lapatinib, reference compound] | ≥ 50 | – | 7.45 | mice weight [3]: 27.35 g
25 | O=C1c2ccccc2C(=O)N1CCc1csc(N(/N=C/c2cc(Cl)cc(Cl)c2)C(=O)CCl)n1 [V] | – | – | – | IC50 ([2]; reported thiazole-based agent): 9.06 µM
